The record followed here is ChEMBL document CHEMBL1149440, “Indol-1-yl acetic acids as peroxisome proliferator-activated receptor agonists: design, synthesis, structural biology, and molecular docking studies” (J Med Chem, 2006).

Experiment [1] addresses T1, Peroxisome proliferator-activated receptor alpha (Homo sapiens, UniProt Q07869).
T1 sequence (Q07869 whole entry): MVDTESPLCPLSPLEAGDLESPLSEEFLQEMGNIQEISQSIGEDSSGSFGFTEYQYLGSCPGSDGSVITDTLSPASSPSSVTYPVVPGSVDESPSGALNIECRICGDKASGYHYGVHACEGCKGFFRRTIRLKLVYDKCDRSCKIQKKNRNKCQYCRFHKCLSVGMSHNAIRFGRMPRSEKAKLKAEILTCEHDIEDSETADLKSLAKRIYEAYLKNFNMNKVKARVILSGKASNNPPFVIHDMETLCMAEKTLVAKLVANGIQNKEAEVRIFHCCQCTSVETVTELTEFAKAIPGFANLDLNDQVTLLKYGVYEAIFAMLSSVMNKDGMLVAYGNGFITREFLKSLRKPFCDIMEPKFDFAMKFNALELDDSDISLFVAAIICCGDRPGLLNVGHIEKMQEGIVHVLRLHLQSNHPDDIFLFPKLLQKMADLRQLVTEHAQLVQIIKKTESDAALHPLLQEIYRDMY
It counts as functional, cell-based, Huh-7.

The target of experiment [2] is T2, Peroxisome proliferator-activated receptor delta (Homo sapiens, UniProt Q03181).
T2 sequence (Q03181 whole entry): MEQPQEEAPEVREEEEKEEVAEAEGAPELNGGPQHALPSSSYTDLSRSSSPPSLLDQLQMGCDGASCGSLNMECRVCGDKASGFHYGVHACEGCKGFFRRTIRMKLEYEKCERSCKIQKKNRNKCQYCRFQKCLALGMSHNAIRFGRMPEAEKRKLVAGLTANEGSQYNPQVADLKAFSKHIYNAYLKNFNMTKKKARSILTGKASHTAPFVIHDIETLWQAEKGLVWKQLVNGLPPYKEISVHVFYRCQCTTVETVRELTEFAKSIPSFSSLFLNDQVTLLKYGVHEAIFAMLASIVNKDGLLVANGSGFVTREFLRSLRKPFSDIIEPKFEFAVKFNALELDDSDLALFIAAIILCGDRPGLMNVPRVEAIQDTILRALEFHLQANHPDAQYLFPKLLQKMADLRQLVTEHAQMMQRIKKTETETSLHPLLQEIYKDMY
It counts as functional, cell-based, Huh-7.

In experiment [3] the target is T2, Peroxisome proliferator-activated receptor delta.
In experiment [4] the target is T1, Peroxisome proliferator-activated receptor alpha.

By EC50 is commonly meant the midpoint of the concentration-response curve. The term IC50 denotes the point on the concentration scale where inhibition reaches its midpoint. A high value points to weaker potency in that assay. Consider `CCCc1cc(C(=O)c2ccc(F)cc2)ccc1OCCCOc1ccc2ccn(CC(=O)O)c2c1`, for which the EC50 in experiment [1] was over 10 µM; in experiment [2], 5.29 µM. For the same molecule, the IC50 in experiment [3] is 7.62 µM; in experiment [4] it was 1.05 µM.

For `O=C(O)Cn1ccc2c(OCCCOc3ccc(C(=O)c4ccc(F)cc4)cc3)cccc21`, the concentration giving a half-maximal response (EC50) in experiment [1] and in experiment [2] was over 10 µM in each case. Moreover, the IC50 was over 10 µM in experiment [3] and 1.02 µM in experiment [4].

On to `CCCc1c(OCCCOc2cccc3c2ccn3CC(=O)O)ccc2cc(C(=O)c3ccccc3)ccc12`, for which the EC50 was 0.019 µM in experiment [1] and over 10 µM in experiment [2]. Besides, the figures for the IC50 in experiment [3] and in experiment [4] were 5.38 µM and 0.578 µM, respectively.

As to `O=C(O)Cn1ccc2cc(OCCCOc3ccc4cc(C(=O)c5ccccc5)ccc4c3)ccc21`, the EC50 in experiment [1] is 0.27 µM; in experiment [2] it was 5.6 µM. Further, the IC50 in experiment [3] came out at 4.43 µM; in experiment [4] it was 0.484 µM.

`CCCc1c(OCCCOc2ccc3ccn(CC(=O)O)c3c2)ccc2cc(C(=O)c3ccccc3)ccc12`: the EC50 stood at 2.48 µM in experiment [1] and 4.9 µM in experiment [2]. For the same molecule, the values for the half-inhibitory concentration (IC50) in experiment [3] and in experiment [4] were 2.4 µM and 4.49 µM, respectively.

Turning to `O=C(O)Cn1ccc2ccc(OCCCOc3ccc(C(=O)c4ccc(F)cc4)cc3)cc21`, the EC50 in experiment [1] was 0.765 µM; in experiment [2], 4.35 µM. Besides, the figures for the concentration for half-maximal inhibition (IC50) in experiment [3] and in experiment [4] were 3.15 µM and 0.116 µM, respectively.

As to `CCCc1cc(C(=O)c2ccc(F)cc2)ccc1OCCCOc1ccc2c(ccn2CC(=O)O)c1`, the EC50 in experiment [1] was 0.05 µM. The concentration for half-maximal inhibition (IC50) in experiment [4] stood at 0.47 µM.

Molecule `CCCc1c(OCCCOc2ccc3c(ccn3CC(=O)O)c2)ccc2cc(C(=O)c3ccccc3)ccc12` came in with an EC50 in experiment [1] of 0.008 µM. Moreover, in experiment [4], the IC50 is 0.113 µM.

As for `CCCc1cc(C(=O)c2ccc(F)cc2)ccc1OCCCOc1cccc2c1ccn2CC(=O)O`, the EC50 was 0.773 µM in experiment [1] and 4 µM in experiment [2]. Also, the IC50 in experiment [3] was 3.26 µM; in experiment [4] it was 0.414 µM.

Take `O=C(O)Cn1ccc2cc(OCCCOc3ccc(C(=O)c4ccc(F)cc4)cc3)ccc21`: the EC50 in experiment [1] and in experiment [2] was over 10 µM throughout. Besides, the IC50 in experiment [3] and in experiment [4] was over 10 µM throughout.

For `O=C(O)Cn1ccc2ccc(OCCCOc3ccc4cc(C(=O)c5ccccc5)ccc4c3)cc21`, the EC50 in experiment [1] and in experiment [2] was over 10 µM each time. Also, the IC50 was 2.57 µM in experiment [3] and 4.49 µM in experiment [4].

With `O=C(O)Cn1ccc2c(OCCCOc3ccc4cc(C(=O)c5ccccc5)ccc4c3)cccc21`, the EC50 in experiment [1] and in experiment [2] was over 10 µM each time. For the same molecule, the IC50 in experiment [3] was over 10 µM; in experiment [4] it was 1.08 µM.

`CCCc1c(OCCCOc2ccc3c(ccn3CC(=O)O)c2)ccc2c(C(F)(F)F)noc12` came in with an IC50 in experiment [4] of 0.496 µM.
